Article PMC2409895, “Antitumour efficacy of VEGFR2 tyrosine kinase inhibitor correlates with expression of VEGF and its receptor VEGFR2 in tumour models” (British Journal of Cancer, 2004)

Experiments:
[1] = target: T1, ErbB2 (Homo sapiens, UniProt P04626); experiment: ErbB2 kinase assay (scintillation proximity); format: biochemical
T1 construct: Each kinase assay was conducted using purified recombinant catalytic domain of the enzyme
Experimental: (§1) Inhibition of several other kinases by small molecules was also determined. Each kinase assay was conducted using purified recombinant catalytic domain of the enzyme. The concentration of ATP and kinase-specific biotinylated peptide in each assay was below the apparent Km of the respective substrate. Inhibition of c-Fms, SRC, and Tie-2 was evaluated by an HTRF format and the inhibition of CDK2, CDK4, EGFR, ErbB2, and Eph-B4 was detected by scintillation proximity assay.

[2] = target: T2, human VEGFR kinase 3 (Homo sapiens, UniProt P35916); experiment: VEGFR3 kinase assay (HTRF); format: biochemical
T2 construct: GST-fusion protein encoding the catalytic carboxyl-terminus of human VEGFR kinase 1, 2, or 3; made in house; host or cells: baculovirus expression system
Experimental: (§2) Vascular endothelial growth factor receptor kinase assays were carried out in a homogenous time-resolved fluorescence (HTRF) format in 384-well microtitre plates using a purified, baculovirus-expressed GST-fusion protein encoding the catalytic carboxyl-terminus of human VEGFR kinase 1, 2, or 3. Reactions were initiated by the addition of 10 μl of activated VEGFR kinase (1 nM, 0.1 M HEPES pH 7.5, 0.1 mg ml^−1 BSA, and 0.30 mM DTT) to 10 μl of substrate (360 nM biotin-aminohexyl-EEEEYFELVAKKKK-NH2 peptide, 75 μM ATP, 10 mM MgCl2) and 1 μl of small molecule inhibitor at various concentrations. Plates were incubated at room temperature for 60 min, and the reaction was stopped by the addition of 20 μl 100 mM EDTA. Homogenous time-resolved fluorescence reagents (20 μl 15 nM streptavidin-linked allophycocyanin, 1 nM europium-labelled anti-phosphotyrosine antibody in 0.1 M HEPES, pH 7.5, 0.1 mg ml^−1 BSA) were added and plates were incubated for a minimum of 10 min. The fluorescence at 665 nm was measured with a Victor plate reader (Wallac, Shelton, CT, USA) using a time delay of 50 μs. […] Data were fitted with a curve described by: y=((Vmax × x)/(K+x)+Y2), where Vmax is the upper asymptote, Y2 is the Y intercept, and K is the IC50.

[3] = target: T3, CDK4 (Homo sapiens, UniProt P11802); experiment: CDK4 kinase assay (scintillation proximity); format: biochemical
T3 construct: Each kinase assay was conducted using purified recombinant catalytic domain of the enzyme
Experimental: as §1

[4] = Pharmacokinetics in mice; format: in vivo, mouse; conditions: for free Cmax: mice, based on 99% protein binding and total plasma concentration
[5] = test system: HUVEC grown in presence of bFGF; experiment: bFGF-induced HUVEC proliferation (BrdU incorporation); format: cell-based; conditions: Homo sapiens, bFGF 0.3 ng ml^−1, 72 h
Experimental: Effect of kinase inhibitors on cell proliferation was measured using BrdU incorporation method using commercially available kits (Roche Diagnostics, Indianapolis, IN, USA). Briefly, HUVEC were seeded in a medium containing 5% FBS in type 1 Collagen-coated 96-well plates and incubated overnight at 37°C, 5% CO2. The medium was aspirated from the cells, and various concentrations of kinase inhibitors in serum-free medium were added to each well. After 30 min, VEGF (10 ng ml^−1) or bFGF (0.3 ng ml^−1) was added to the wells. Cells were incubated for an additional 72 h and BrdU (10 μM) was added during the last 18–24 h of incubation. Data were fitted with a curve described by the equation, y=Vmax × (1−(x/(K+x))), where K is equal to the IC50.

[6] = target: T4, human VEGFR2 kinase (Homo sapiens, UniProt P35968); experiment: VEGFR2 kinase assay (HTRF); format: biochemical; conditions: Table 1
T4 construct: GST-fusion protein encoding the catalytic carboxyl-terminus of human VEGFR kinase 1, 2, or 3; made in house; host or cells: baculovirus expression system
Experimental: as §2

[7] = test system: HN5 xenograft; experiment: HN5 tumour xenograft growth inhibition; format: in vivo, nude mice; conditions: for % Inhibition of tumour growth: vs vehicle
Experimental: (§3) Tumours were initiated by injection of tumour cell suspension subcutaneously in 8–12-week-old nude mice, except PC3 tumours that were grown in SCID mice (Charles River Laboratories, Wilmington, MA, USA). When tumours reached a volume of 100–200 mm^3, mice were randomised into groups of eight prior to treatment with VEGFR kinase inhibitors. Animals were treated with kinase inhibitors (10, 30, or 100 mg kg^−1) or vehicle (0.5% hydroxypropyl methyl cellulose, 0.1% Tween 80 in sterile water), administered once or twice daily by oral gavage for 2–3 weeks (till the mean tumour volume reached 1000–1500 mm^3). Tumour volume was measured twice weekly by calipers, using the formula (length × width × width × 0.5), where length was the longest diameter across the tumour, and width was the corresponding perpendicular. Tumour growth inhibition was calculated by change in the slopes of tumour growth for control and treated tumours. The oral dose of GW654652 producing 50% inhibition of tumour growth (ED50, mg kg^−1) was estimated by a programme that performed a weighted nonlinear regression analysis of data using the equation: y=Vmax(1−(x/(K+x))), where K is equal to ED50. All animal studies were carried out with the appropriate institutional ethical committee approval and they met the standards of both the US federal regulations and those required by the UKCCCR guidelines ([Workman et al, 1998]).

[8] = target: T5, c-Fms (Homo sapiens, UniProt P07333); experiment: c-Fms kinase assay (HTRF); format: biochemical
T5 construct: Each kinase assay was conducted using purified recombinant catalytic domain of the enzyme
T5 sequence (P07333 582-910 limits assumed): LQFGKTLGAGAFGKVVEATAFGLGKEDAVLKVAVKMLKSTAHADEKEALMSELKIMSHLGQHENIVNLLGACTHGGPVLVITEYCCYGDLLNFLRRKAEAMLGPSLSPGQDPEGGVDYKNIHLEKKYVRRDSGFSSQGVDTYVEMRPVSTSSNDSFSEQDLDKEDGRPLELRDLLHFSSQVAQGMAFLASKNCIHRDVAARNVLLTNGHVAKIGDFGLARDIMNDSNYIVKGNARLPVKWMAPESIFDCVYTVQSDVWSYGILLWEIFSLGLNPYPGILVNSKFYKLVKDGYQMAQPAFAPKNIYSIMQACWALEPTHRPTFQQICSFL
Experimental: as §1

[9] = Protein binding; format: in vitro ADME; conditions: mouse, plasma; used to calculate free Cmax in mice
[10] = test system: HT29 xenograft; experiment: HT29 tumour xenograft growth inhibition; format: in vivo, nude mice; conditions: for % Inhibition of tumour growth: vs vehicle
Experimental: as §3

[11] = Pharmacokinetics in dog; format: in vivo
[12] = target: T6, EGFR (Homo sapiens, UniProt P00533); experiment: EGFR kinase assay (scintillation proximity); format: biochemical
T6 construct: Each kinase assay was conducted using purified recombinant catalytic domain of the enzyme
Experimental: as §1

[13] = ratio of IC50 of the kinase to IC50 vs VEGFR-2

T1 sequence (P04626 720-987 limits assumed, species assumed): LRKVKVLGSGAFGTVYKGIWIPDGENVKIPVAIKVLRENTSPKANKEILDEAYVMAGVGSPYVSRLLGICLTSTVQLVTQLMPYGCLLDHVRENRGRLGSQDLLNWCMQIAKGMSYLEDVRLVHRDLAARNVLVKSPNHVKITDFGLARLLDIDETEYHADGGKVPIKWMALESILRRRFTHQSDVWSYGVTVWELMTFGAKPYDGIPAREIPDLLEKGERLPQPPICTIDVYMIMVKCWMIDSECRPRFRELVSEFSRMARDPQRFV
T6 sequence (P00533 712-979 limits assumed, species assumed): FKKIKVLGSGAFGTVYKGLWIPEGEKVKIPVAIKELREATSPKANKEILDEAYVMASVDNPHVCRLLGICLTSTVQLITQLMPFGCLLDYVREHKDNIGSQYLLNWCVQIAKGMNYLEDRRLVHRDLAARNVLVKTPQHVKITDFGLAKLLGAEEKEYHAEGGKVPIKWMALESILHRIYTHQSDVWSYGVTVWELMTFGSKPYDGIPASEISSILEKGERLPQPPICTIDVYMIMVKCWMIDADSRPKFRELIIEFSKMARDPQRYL
T2 sequence (P35916 845-1173 limits assumed): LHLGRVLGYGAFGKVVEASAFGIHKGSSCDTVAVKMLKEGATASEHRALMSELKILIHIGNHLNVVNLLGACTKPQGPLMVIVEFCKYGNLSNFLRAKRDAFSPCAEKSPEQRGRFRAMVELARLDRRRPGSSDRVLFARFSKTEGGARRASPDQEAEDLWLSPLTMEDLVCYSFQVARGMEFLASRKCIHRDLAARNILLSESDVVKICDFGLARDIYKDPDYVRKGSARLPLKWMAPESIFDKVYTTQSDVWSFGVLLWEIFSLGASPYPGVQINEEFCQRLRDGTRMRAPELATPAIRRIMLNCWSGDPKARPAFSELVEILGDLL
T3 sequence (P11802 6-295 limits assumed, species assumed): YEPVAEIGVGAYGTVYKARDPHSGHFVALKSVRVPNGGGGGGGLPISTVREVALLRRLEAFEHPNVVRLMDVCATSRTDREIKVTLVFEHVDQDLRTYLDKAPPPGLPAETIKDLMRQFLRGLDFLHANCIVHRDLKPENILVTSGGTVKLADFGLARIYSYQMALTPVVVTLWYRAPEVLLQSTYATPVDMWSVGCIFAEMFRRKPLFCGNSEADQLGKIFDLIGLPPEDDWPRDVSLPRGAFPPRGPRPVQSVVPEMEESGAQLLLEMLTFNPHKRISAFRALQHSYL
T3 sequence (P24385 whole entry partner, species assumed, the tested form may be a part): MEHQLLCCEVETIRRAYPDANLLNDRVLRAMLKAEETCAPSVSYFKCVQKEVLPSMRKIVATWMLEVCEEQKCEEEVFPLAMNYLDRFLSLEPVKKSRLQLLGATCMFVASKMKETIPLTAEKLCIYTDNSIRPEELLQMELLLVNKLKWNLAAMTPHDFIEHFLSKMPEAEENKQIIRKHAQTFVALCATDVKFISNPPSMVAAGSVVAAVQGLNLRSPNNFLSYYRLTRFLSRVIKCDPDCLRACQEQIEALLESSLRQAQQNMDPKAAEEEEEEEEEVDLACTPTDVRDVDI
T4 sequence (P35968 834-1162 limits assumed): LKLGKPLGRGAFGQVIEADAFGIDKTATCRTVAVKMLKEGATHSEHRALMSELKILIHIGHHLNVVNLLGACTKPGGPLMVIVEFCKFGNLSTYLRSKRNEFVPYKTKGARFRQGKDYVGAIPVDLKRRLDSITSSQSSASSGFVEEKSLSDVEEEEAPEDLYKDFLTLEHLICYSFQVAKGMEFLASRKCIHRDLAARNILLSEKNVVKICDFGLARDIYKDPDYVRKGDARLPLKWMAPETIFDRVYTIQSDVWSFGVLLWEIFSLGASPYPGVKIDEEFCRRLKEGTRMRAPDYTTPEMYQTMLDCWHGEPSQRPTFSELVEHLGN

SMILES: CCS(=O)(=O)c1ccc(OC)c(Nc2nccc(N(C)c3ccc4c(C)n[nH]c4c3)n2)c1 [GW654652, N^2-[5-(ethylsulphonyl)-2-methoxyphenyl]-N^4-methyl-N^4-(3-methyl-1H-indazol-6-yl)pyrimidine-2,4-diamine]
- IC50 ([1]; mean±s.e.): 11500 ± 2740 nM
- Fold selectivity vs VEGFR-2, ErbB2 [1, 13]: 5125
- IC50 ([2]; mean±s.e.): 2.5 ± 0.5 nM
- Fold selectivity vs VEGFR-2, VEGFR-3 [2, 13]: 1.1
- IC50 [3]: > 20000 nM
- Fold selectivity vs VEGFR-2, CDK4 [3, 13]: >8800
- free Cmax ([4]; oral 10 mg kg^−1): 60 nM
- free Cmax ([4]; oral 30 mg kg^−1): 230 nM
- free Cmax ([4]; oral 100 mg kg^−1): 1380 nM
- pharmacokinetic profile ([4]; mouse): good pharmacokinetic profile
- IC50 [5]: 1980 nM
- IC50 [6]: 2.3 nM
- % Inhibition of tumour growth ([7]; HN5, 10 mg kg^−1 oral once daily): 24%
- % Inhibition of tumour growth ([7]; HN5, 30 mg kg^−1 oral once daily): 46%
- % Inhibition of tumour growth ([7]; HN5, 100 mg kg^−1 oral once daily): 83%
- ED50 ([7]; HN5, oral dose producing 50% inhibition of tumour growth): 28 ± 10 mg/kg/day
- IC50 ([8]; mean±s.e.): 530 ± 330 nM
- Fold selectivity vs VEGFR-2, c-Fms [8, 13]: 237
- fraction unbound [9]: 0.01
- % Inhibition of tumour growth ([10]; HT29, 10 mg kg^−1 oral once daily): 5%
- % Inhibition of tumour growth ([10]; HT29, 30 mg kg^−1 oral once daily): 69%
- % Inhibition of tumour growth ([10]; HT29, 100 mg kg^−1 oral once daily): 98%
- ED50 ([10]; HT29, oral dose producing 50% inhibition of tumour growth): 20 ± 8 mg/kg/day
- pharmacokinetic profile [11]: good pharmacokinetic profile
- IC50 ([12]; mean±s.e.): 1360 ± 420 nM
- Fold selectivity vs VEGFR-2, EGFR [12, 13]: 605
